Assay results reported in US20160220574A1, “NSAID AND SIGMA RECEPTOR LIGAND COMBINATIONS” (LABORATORIOS DEL DR. ESTEVE, S.A., priority 2013, published 2016).
Read-outs that look alike come from different tables or passages of the source.

Legend:
[1] = system: mechanical allodynia of the post-operative pain model in rats; experiment: Mechanical allodynia (von Frey filaments) in the post-operative pain model (plantar incision) in rats; assay type: in vivo; conditions: for doses producing significant effect, Sigma antagonist alone: BD1063 alone 20, 40 and 80 mg/kg, compound 63.HCl alone 10, 20, 40 and 80 mg/kg
Procedure: The induction of anesthesia in rats was performed with 3% isofluran for veterinary use, employing an Ohmeda vaporizer and an anesthesia chamber. Anesthesia was kept during the surgical operation by a tube which directs the isofluran vapors to the animal's snout. Once the rats were anesthetized, they were laid down in a prone position and their right hind paws were cleaned out with alcohol. Then, a skin incision in the hindpaw of about 10 mm was made by means of a scalpel, starting about 5 mm from the heel and extending toward the toes. Fascia was located and by means of curve scissors muscle was elevated and a longitudinal incision of about 5 mm was made, thus the muscle origin and insertion remained intact. The skin of the paw was stitched with a suturing stitch with breaded silk (3.0) and the wound was cleaned out with povidone. The assessment was performed 30 minutes after the administration of product and always 4 hours after the plantar incision. The analysis was carried out evaluating the mechanical allodynia. It was tested using von Frey filaments: Animals were placed in methacrylate cylinders on an elevated surface, with metallic mesh floor perforated in order to apply the filaments. […] The animal's response to pain was manifested by the withdrawal of the paw as a consequence of the painful stimulus caused by a filament.

σ1 receptors = conditions: rodent brain membranes and human neuroblastoma cells, cited from earlier work
D2 receptors = conditions: rodent brain membranes and human neuroblastoma cells; compared with haloperidol; cited from earlier work
sigma-1 receptors = conditions: both in experimental animals and human cells; cited from earlier work

CC(=O)Nc1ccc(O)cc1 [Paracetamol]
Mean of the porcentage of analgesia in the post-operative pain model, Compounds alone ([1]; dose 20 mg/kg): 13% | effect of NSAID alone ([1]; rats, NSAID alone 20 mg/kg): no significant effect

Cc1c(N(C)CS(=O)(=O)O)c(=O)n(-c2ccccc2)n1C [Metamizole]
Mean of the porcentage of analgesia in the post-operative pain model, Compounds alone ([1]; dose 0.156 mg/kg): 14% | effect of NSAID alone ([1]; rats, NSAID alone 0.156 mg/kg): no significant effect

OC1(c2ccc(Cl)cc2)CCNCC1 [metabolite I, 4-(4-chlorophenyl)-4-hydroxypiperidine]
affinity for σ1 (sigma-1) receptors (σ1 receptors): less affinity than haloperidol | affinity for D2 receptors (D2 receptors): no affinity

Cc1ccc(-c2cc(C(F)(F)F)nn2-c2ccc(S(N)(=O)=O)cc2)cc1 [Celecoxib]
Mean of the porcentage of analgesia in the post-operative pain model, Compounds alone ([1]; dose 0.625 mg/kg): 13% | effect of NSAID alone ([1]; rats, NSAID alone 0.625 mg/kg): no significant effect

Cc1cc(OCCN2CCOCC2)nn1-c1ccc2ccccc2c1 [compound 63, 4-{2-[5-Methyl-1-(naphthalen-2-yl)-1H-pyrazol-3-yloxy]ethyl}morpholine]
Mean of the porcentage of analgesia in the post-operative pain model, Compounds alone ([1]; dose 10 mg/kg): 2% | Mean of the porcentage of analgesia in the post-operative pain model, Compounds alone ([1]; dose 20 mg/kg): 15% | Mean of the porcentage of analgesia in the post-operative pain model, Compounds alone ([1]; dose 40 mg/kg): 43% | Mean of the porcentage of analgesia in the post-operative pain model, Compounds alone ([1]; dose 80 mg/kg): 41%

O=C(O)Cc1ccccc1Nc1c(Cl)cccc1Cl [Diclofenac]
Mean of the porcentage of analgesia in the post-operative pain model, Compounds alone ([1]; dose 0.625 mg/kg): 13% | effect of NSAID alone ([1]; rats, NSAID alone 0.312 mg/kg): no significant effect

CN1CCN(CCc2ccc(Cl)c(Cl)c2)CC1 [BD1063, 1-[2-(3,4-dichlorophenyl)ethyl]-4-methylpiperazine]
ED50 ([1]; Rattus norvegicus, rats, compound alone, administered 3.5 hours after surgery, assessed 30 minutes after administration, 4 hours after plantar incision, read-out: ED50 (dose-dependent effect), Sigma antagonist alone): 56.2 mg/kg | doses producing significant effect, Sigma antagonist alone ([1]; rats): significant effect only at 40 and 80 mg/kg

OC(CCCN1CCC(O)(c2ccc(Cl)cc2)CC1)c1ccc(F)cc1 (centres unmarked) [metabolite II, 4-(4-chlorophenyl)-[…]-(4-fluorophenyl)-4-hydroxy-1-piperidinebutanol]
affinity for σ1 (sigma-1) receptors (σ1 receptors): less affinity than haloperidol | affinity for σ1 (sigma-1) receptors (σ1 receptors; listed as Reduced haloperidol): high affinity (in the low nanomolar range) | affinity for D2 receptors (D2 receptors): much lower | blockade of sigma-1 receptors (sigma-1 receptors): irreversible blockade

Cc1cc(OCCN2CCOCC2)nn1-c1ccc2ccccc2c1.Cl [compound 63.HCl, 4-{2-[5-Methyl-1-(naphthalen-2-yl)-1H-pyrazol-3-yloxy]ethyl}morpholine hydrochloride]
doses producing significant effect, Sigma antagonist alone ([1]; rats): significant effect only at 40 and 80 mg/kg | maximum effect / maximum efficacy, Sigma antagonist alone ([1]; rats, compound alone (10, 20, 40 and 80 mg/kg), without sub-active dose of NSAID, 3.5 hours after surgery): 43%

CC(C)Cc1ccc(C(C)C(=O)O)cc1 (centres unmarked) [Ibuprofen]
Mean of the porcentage of analgesia in the post-operative pain model, Compounds alone ([1]; dose 0.625 mg/kg): 16% | effect of NSAID alone ([1]; rats, NSAID alone 0.625 mg/kg): no significant effect

COc1ccc2cc([C@H](C)C(=O)O)ccc2c1 [Naproxen]
Mean of the porcentage of analgesia in the post-operative pain model, Compounds alone ([1]; dose 0.312 mg/kg): 13% | effect of NSAID alone ([1]; rats, NSAID alone 0.312 mg/kg): no significant effect
